The values below come from patent publication US8440830B2, “Tetrahydro-fused pyridines as histone deacetylase inhibitors” (4SC AG, priority 2007, dated 2013).

The subject of the test is A549 NSCLC cells. Description: Cellular cytotoxicity assay (Alamar Blue), A549. It counts as cell-based. The following applies: Homo sapiens, 72 h, upper end given as ≧100, read-out: IC50 (μM), cytotoxicity towards A549 NSCLC cells. As to the method:
The anti-proliferative activity of the histone deacetylase inhibitory compounds as described herein, is evaluated using the following cell lines: HeLa and HeLa-KB (cervical carcinoma), H460 (non small cell lung cancer), A549 (non-small cell lung cancer), MCF7 (breast carcinoma), MCF10A (normal, non tumorigenic breast epithelial), MDA-MB468 (breast carcinoma), MDA-MB435 (breast carcinoma), MDA-MB231 (breast carcinoma), SKBR-3 (breast carcinoma), SKOV-3 (ovarial carcinoma), A-2780 (ovarial carcinoma), RKO (colon carcinoma), HCT-15 (colon carcinoma), HCT-116 (colon carcinoma), PC3 (prostate carcinoma), BPH1 (benign prostate hyperplasia), AsPC1 (pancreatic carcinoma), Ca127 (tongue carcinoma), A-431 (vulva carcinoma), Hec1A (endometrial carcinoma), Saos-2 (osteosarcoma), U87MG (glioblastoma), WM266-4 (melanoma), K562 (chronic myeloid leukemia), EOL1 (acute hypereosinophilic myeloid leukemia), CCRF-CEM and CCRF-CEM VCR1000 (acute lymphoblastic leukemia sensitive and resistant towards Vincristine). For quantification of cellular proliferation/living cells the Alamar Blue (Resazurin) cell viability assay is applied (O'Brien et al. Eur J Biochem 267, 5421-5426, 2000). In this assay Resazurin is reduced to the fluorescent resorufine by cellular dehydrogenase activity, correlating with viable, proliferating cells. The examples are dissolved as 20 mM solutions in dimethylsulfoxide (DMSO) and subsequently diluted in semi-logarithmic steps. Cell lines are seeded at respective density into 96 well flat bottom plates in a volume of 200 μl per well. 24 h after seeding 1 μl each of the compound dilutions are added into each well of the 96 well plate. Each compound dilution is tested as quadruplicates. Wells containing untreated control cells are filled with 200 μl DMEM medium containing 0.5% v:v DMSO. The cells are then incubated with the compounds for 72 h at 37° C. in a humidified atmosphere containing 5% carbon dioxide. To determine the viability of the cells, 20 μl of a Resazurin solution (Sigma; 90 mg/l) are added. After 4 h incubation at 37° C. the fluorescence is measured at an extinction of λ=544 nm and an emission of λ=590 nm. For the calculation of the cell viability the emission value from untreated cells is set as 100% viability and the emission rates of treated cells are set in relation to the values of untreated cells. Viabilities are expressed as % values. The corresponding IC50 values of the compounds for cytotoxic activity are determined from the concentration-effect curves by means of non-linear regression.
Background: Alamar Blue is a resazurin reagent that responds to reducing activity.

Turning to `COC(=O)c1ccc(NC(=O)N2CCc3nc(C(=O)Nc4ccccc4N)sc3C2)cc1` [Example 5, Methyl 4-[({2-[(2-aminophenyl)carbamoyl]-6,7-dihydro[1,3]thiazolo[5,4-c]pyridin-5(4H)-yl}carbonyl)amino]benzoate], the 50% inhibitory concentration (IC50) was ≥ 0.2 µM.

In the case of `Nc1ccccc1NC(=O)c1nc2c(s1)CN(C(=O)Nc1ccc(Oc3ccccc3)cc1)CC2` [Example 6, N^2-(2-aminophenyl)-N5-(4-phenoxyphenyl)-6,7-dihydro[1,3]thiazolo[5,4-c]pyridine-2,5(4H)-dicarboxamide], the IC50 was ≥ 0.2 µM. Under `Nc1ccccc1NC(=O)c1nc2c(s1)CN(C(=O)Nc1ccccc1OC(F)(F)F)CC2` [Example 8, N^2-(2-aminophenyl)-N5-[2-(trifluoromethoxy)phenyl]-6,7-dihydro[1,3]thiazolo[5,4-c]pyridine-2,5(4H)-dicarboxamide] stands ≥ 0.2 µM.

Regarding `Nc1ccccc1NC(=O)c1nc2c(s1)CN(C(=O)Nc1ccc(OC(F)(F)F)cc1)CC2` [Example 9, N^2-(2-aminophenyl)-N5-[4-(trifluoromethoxy)phenyl]-6,7-dihydro[1,3]thiazolo[5,4-c]pyridine-2,5(4H)-dicarboxamide], the IC50 is ≥ 0.2 µM. Under `Nc1ccccc1NC(=O)c1nc2c(s1)CN(C(=O)Nc1ccccc1OC(F)F)CC2` [Example 10, N^2-(2-aminophenyl)-N5-[2-(difluoromethoxy)phenyl]-6,7-dihydro[1,3]thiazolo[5,4-c]pyridine-2,5(4H)-dicarboxamide] stands ≥ 0.2 µM; under `Nc1ccccc1NC(=O)c1nc2c(s1)CN(C(=O)Nc1ccc(OC(F)F)cc1)CC2` [Example 11, N^2-(2-aminophenyl)-N5-[4-(difluoromethoxy)phenyl]-6,7-dihydro[1,3]thiazolo[5,4-c]pyridine-2,5(4H)-dicarboxamide], ≥ 0.2 µM. Under `CNC(=O)N1CCc2nc(C(=O)Nc3ccccc3N)sc2C1` [Example 17, N^2-(2-aminophenyl)-N^5-methyl-6,7-dihydro[1,3]thiazolo[5,4-c]pyridine-2,5(4H)-dicarboxamide] stands ≥ 0.2 µM. Take `COCCN(C)C(=O)N1CCc2nc(C(=O)Nc3ccccc3N)sc2C1` [Example 20, N^2-(2-aminophenyl)-N^5-(2-methoxyethyl)-N^5-methyl-6,7-dihydro[1,3]thiazolo[5,4-c]pyridine-2,5 (41:1)-dicarboxamide]: the IC50 is ≥ 0.2 µM. Under `CCN(C(=O)N1CCc2nc(C(=O)Nc3ccccc3N)sc2C1)C(C)C` [Example 21, N^2-(2-aminophenyl)-N^5-ethyl-N^5-isopropyl-6,7-dihydro[1,3]thiazolo[5,4-c]-pyridine-2,5(4H)-dicarboxamide] stands ≥ 0.2 µM. Under `CN(C)c1ccc(N(C)C(=O)N2CCc3nc(C(=O)Nc4ccccc4N)sc3C2)cc1` [Example 22, N^2-(2-aminophenyl)-N^5-[4-(dimethylamino)phenyl]-N^5-methyl-6,7-dihydro-[1,3]thiazolo[5,4-c]pyridine-2,5(4H)-dicarboxamide] stands ≥ 0.2 µM; under `CN(C)c1cccc(N(C)C(=O)N2CCc3nc(C(=O)Nc4ccccc4N)sc3C2)c1` [Example 23, N^2-(2-aminophenyl)-N^5-[3-(dimethylamino)phenyl]-N^5-methyl-6,7-dihydro-[1,3]-thiazolo[5,4-c]pyridine-2,5(4H)-dicarboxamide], ≥ 0.2 µM. Under `COc1ccc(N(C)C(=O)N2CCc3nc(C(=O)Nc4ccccc4N)sc3C2)cc1OC` [Example 24, N^2-(2-aminophenyl)-N^5-(3,4-dimethoxyphenyl)-N^5-methyl-6,7-dihydro[1,3]-thiazolo[5,4-c]pyridine-2,5(4H)-dicarboxamide] stands ≥ 0.2 µM; under `Nc1ccccc1NC(=O)c1nc2c(s1)CN(C(=O)Nc1ccc(N3CCOCC3)nc1)CC2` [Example 34, N^2-(2-aminophenyl)-N^5-(6-morpholin-4-ylpyridin-3-yl)-6,7-dihydro[1,3]thiazolo[5,4-c]pyridine-2,5(4H)-dicarboxamide], ≥ 0.2 µM. `Nc1ccccc1NC(=O)c1nc2c(s1)CN(C(=O)Nc1ccc(N3CCC3)nc1)CC2` [Example 35, N^2-(2-aminophenyl)-N^5-(6-azetidin-1-ylpyridin-3-yl)-6,7-dihydro[1,3]thiazolo[5,4-c]pyridine-2,5(4H)-dicarboxamide]: the IC50 was ≥ 0.2 µM. As for `COc1ccc(NC(=O)N2CCc3nc(C(=O)Nc4ccccc4N)sc3C2)cn1` [Example 38, N^2-(2-aminophenyl)-N^5-(6-methoxypyridin-3-yl)-6,7-dihydro[1,3]thiazolo[5,4-c]pyridine-2,5(4H)-dicarboxamide], the IC50 was ≥ 0.2 µM. Under `CCCCNC(=O)N1CCc2nc(C(=O)Nc3ccccc3N)sc2C1` [Example 40, N^2-(2-aminophenyl)-N^5-butyl-6,7-dihydro[1,3]thiazolo[5,4-c]pyridine-2,5(4H)-dicarboxamide] stands ≥ 0.2 µM; under `Nc1ccccc1NC(=O)c1nc2c(s1)CN(C(=O)NC1CCC(c3cccnc3)CC1)CC2` (stereo not drawn) [Example 41, N^2-(2-aminophenyl)-N^5-(4-pyridin-3-ylcyclohexyl)-6,7-dihydro[1,3]thiazolo[5,4-c]pyridine-2,5(4H)-dicarboxamide], ≥ 0.2 µM. Under `Nc1ccccc1NC(=O)c1nc2c(s1)CN(C(=O)NC1CCNCC1)CC2` [Example 42, N^2-(2-aminophenyl)-N^5-piperidin-4-yl-6,7-dihydro[1,3]thiazolo[5,4-c]pyridine-2,5(4H)-dicarboxamide] stands ≥ 0.2 µM; under `COc1ccc(NC(=O)N2CCc3nc(C(=O)Nc4cc(OC)ccc4N)sc3C2)cc1` [Example 43, N^2-(2-amino-5-methoxyphenyl)-N^5-(4-methoxyphenyl)-6,7-dihydro[1,3]thiazolo[5,4-c]pyridine-2,5(4H)-dicarboxamide], ≥ 0.2 µM; under `Nc1ccccc1NC(=O)c1nc2c(s1)CN(C(=O)NC1CCC(c3ccncc3)CC1)CC2` (stereo not drawn) [Example 44, N^2-(2-aminophenyl)-N^5-(4-pyridin-4-ylcyclohexyl)-6,7-dihydro[1,3]thiazolo[5,4-c]pyridine-2,5(4H)-dicarboxamide], ≥ 0.2 µM. For `COc1ccc(NC(=O)N2CCc3nc(C(=O)Nc4cc(C(C)C)ccc4N)sc3C2)cc1` [Example 45, N^2-(2-amino-5-isopropylphenyl)-N^5-(4-methoxyphenyl)-6,7-dihydro[1,3]thiazolo[5,4-c]pyridine-2,5(4H)-dicarboxamide], the IC50 is ≥ 0.2 µM. Under `COc1ccc(N)c(NC(=O)c2nc3c(s2)CN(C(=O)Nc2cccc4cnccc24)CC3)c1` [Example 46, N^2-(2-amino-5-methoxyphenyl)-N^5-isoquinolin-5-yl-6,7-dihydro[1,3]thiazolo[5,4-c]pyridine-2,5(4H)-dicarboxamide] stands ≥ 0.2 µM. With `COc1ccc(N)c(NC(=O)c2nc3c(s2)CN(C(=O)Nc2ccc(N(C)C)cc2)CC3)c1` [Example 47, N^2-(2-amino-5-methoxyphenyl)-N^5-[4-(dimethylamino)phenyl]-6,7-dihydro-[1,3]thiazolo[5,4-c]pyridine-2,5(4H)-dicarboxamide], the half-inhibitory concentration (IC50) is ≥ 0.2 µM. Under `COc1ccc(NC(=O)N2CCc3nc(C(=O)Nc4cc(C(C)C)ccc4N)sc3C2)cc1OC` [Example 48, N^2-(2-amino-5-isopropylphenyl)-N^5-(3,4-dimethoxyphenyl)-6,7-dihydro[1,3]thiazolo[5,4-c]pyridine-2,5(4H)-dicarboxamide] stands ≥ 0.2 µM; under `CC(C)c1ccc(N)c(NC(=O)c2nc3c(s2)CN(C(=O)Nc2cccc4cnccc24)CC3)c1` [Example 49, N^2-(2-amino-5-isopropylphenyl)-N^5-isoquinolin-5-yl-6,7-dihydro[1,3]thiazolo[5,4-c]pyridine-2,5(4H)-dicarboxamide], ≥ 0.2 µM; under `CC(C)c1ccc(N)c(NC(=O)c2nc3c(s2)CN(C(=O)Nc2ccc(N(C)C)cc2)CC3)c1` [Example 50, N^2-(2-amino-5-isopropylphenyl)-N^5-[4-(dimethylamino)phenyl]-6,7-dihydro[1,3]thiazolo[5,4-c]pyridine-2,5(4H)-dicarboxamide], ≥ 0.2 µM. Under `COc1ccc(N)c(NC(=O)c2nc3c(s2)CN(C(=O)Nc2ccc(F)cc2)CC3)c1` [Example 51, N^2-(2-amino-5-methoxyphenyl)-N^5-(4-fluorophenyl)-6,7-dihydro[1,3]thiazolo[5,4-c]pyridine-2,5(4H)-dicarboxamide] stands ≥ 0.2 µM.

By IC50 is commonly meant the midpoint of a concentration-inhibition curve.
